Here are results for two molecules from patent publication US8552018B2, “Substituted tricyclic compounds as protein kinase inhibitors” (Arizona Board of Regents on behalf of the University of …, priority 2003, dated 2013).

Each structure is given as a SMILES string. Bounds are passed on as bounds.

In test [1] the test system is Akt phosphorylation in LNCaP prostate carcinoma cells. The experiment in a line: Immunoblot for phospho-Akt (S473). Type of test: cell-based. Particulars: 48 hours. On the procedure: LNCaP prostate carcinoma cells were treated with MP-470, in combinations with Tarceva® and Gleevec®, for 48 hours. Following incubation, cells were lysed and total protein subjected to immunoblot analysis for total Akt and phospho-Akt (S473).

Another test has as its target Aurora-A (Homo sapiens, UniProt O14965). The note with it: 0.1 μM ATP, 30 μM Kemptide. The procedure: [drawing 74] enzyme assays were performed using the Kinase-Glo™ Luminescent Kinase Assay from Promega Corporation (Madison, Wis.). The following conditions were used: [table] Enzymatic reactions were allowed to progress for 2 hours at 30° C., then assayed for kinase activity according to manufacturer protocol.

The next test deals with CDK1 (Homo sapiens, UniProt P06493). The experiment in a line: Kinase-Glo Luminescent Kinase Assay (Examples 27, 33). It counts as biochemical. The procedure:
(§1) The following conditions were used:
(§2) The protein serine-threonine kinases cAMP PK, MKK6 and Cdk1 were tested alongside Aurora-2 kinase to evaluate the activity of compound (II-2-6) against these protein kinases. Briefly, in this assay kinase activity is determined by quantifying the amount of ATP remaining in solution following the kinase reaction by measuring the relative light units (RLU) produced by luciferase using a luminometer. Percent activity was determined for individual compounds by comparing luminometer readings of drug-treated reactions to controls containing no drug (RLUNo Inhib) and no Aurora-2 enzyme (RLUNo Kinase) in the following equation: […]

The target of another test is cAMP-PK (Homo sapiens, UniProt P17612). Described as above. It counts as biochemical. On the procedure: as §1, §2
In a further test the target is MKK6 (Homo sapiens, UniProt P52564). Described as above. It counts as biochemical. On the procedure:
as §1, §2

MKK6, sequence (P52564 whole entry, species assumed): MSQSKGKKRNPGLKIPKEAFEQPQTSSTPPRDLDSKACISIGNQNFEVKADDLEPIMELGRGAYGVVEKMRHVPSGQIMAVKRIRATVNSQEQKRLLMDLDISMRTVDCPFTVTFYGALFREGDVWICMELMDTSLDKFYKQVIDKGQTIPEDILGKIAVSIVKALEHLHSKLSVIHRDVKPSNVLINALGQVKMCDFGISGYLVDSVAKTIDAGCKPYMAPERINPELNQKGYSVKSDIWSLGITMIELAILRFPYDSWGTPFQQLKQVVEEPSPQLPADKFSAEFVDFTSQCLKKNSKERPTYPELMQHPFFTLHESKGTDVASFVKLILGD
CDK1, sequence (P06493 whole entry, species assumed): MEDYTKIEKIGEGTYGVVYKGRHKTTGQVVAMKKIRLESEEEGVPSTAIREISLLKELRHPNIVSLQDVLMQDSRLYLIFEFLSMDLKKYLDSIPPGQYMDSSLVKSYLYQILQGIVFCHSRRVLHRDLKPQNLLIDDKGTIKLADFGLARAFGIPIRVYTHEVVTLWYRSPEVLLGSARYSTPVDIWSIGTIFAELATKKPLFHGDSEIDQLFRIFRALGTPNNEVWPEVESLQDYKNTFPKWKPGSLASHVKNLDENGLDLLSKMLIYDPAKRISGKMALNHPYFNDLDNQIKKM
CDK1, sequence (P14635 whole entry partner, species assumed): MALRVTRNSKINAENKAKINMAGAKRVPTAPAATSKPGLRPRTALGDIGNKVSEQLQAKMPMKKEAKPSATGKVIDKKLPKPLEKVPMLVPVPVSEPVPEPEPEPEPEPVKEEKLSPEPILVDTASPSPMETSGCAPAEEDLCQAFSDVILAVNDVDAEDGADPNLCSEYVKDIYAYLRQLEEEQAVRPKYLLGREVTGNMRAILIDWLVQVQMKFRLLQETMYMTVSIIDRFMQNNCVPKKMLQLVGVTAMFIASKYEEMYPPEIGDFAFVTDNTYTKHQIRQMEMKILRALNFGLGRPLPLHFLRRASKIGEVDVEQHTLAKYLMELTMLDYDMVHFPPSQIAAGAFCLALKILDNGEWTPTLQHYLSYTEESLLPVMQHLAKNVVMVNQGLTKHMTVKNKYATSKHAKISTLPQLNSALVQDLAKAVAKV
Aurora-A, sequence (O14965 whole entry): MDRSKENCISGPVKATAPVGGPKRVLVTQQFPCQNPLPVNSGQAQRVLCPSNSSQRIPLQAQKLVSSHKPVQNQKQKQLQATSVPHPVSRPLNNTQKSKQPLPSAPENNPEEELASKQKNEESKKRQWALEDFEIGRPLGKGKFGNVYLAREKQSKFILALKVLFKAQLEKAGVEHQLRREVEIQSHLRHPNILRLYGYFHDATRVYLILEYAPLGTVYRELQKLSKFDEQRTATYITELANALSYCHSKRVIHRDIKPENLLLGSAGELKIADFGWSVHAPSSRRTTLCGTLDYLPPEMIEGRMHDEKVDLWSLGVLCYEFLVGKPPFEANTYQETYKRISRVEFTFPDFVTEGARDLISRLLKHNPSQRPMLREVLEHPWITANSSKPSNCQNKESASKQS

Take `S=C(NCc1ccc2c(c1)OCO2)N1CCN(c2ncnc3c2oc2ccccc23)CC1` [HPK56, 4-Benzo[4,5]furo[3,2-d]pyrimidin-4-yl-piperazine-1-carbothioic acid (benzo[1,3]dioxol-5-ylmethyl)-amide]: the “reduction of phosphorylation of Akt” value in test [1] (MP-470 and Tarceva® in combination) was “enhanced”. Besides, the “phosphorylation of Akt” value in test [1] (agent alone) is “reduced in a dose-dependent manner”.

`COc1cc2[nH]c3ncnc(N4CCN(C(=S)Nc5ccc(S(=O)(=O)Nc6ncccn6)cc5)CC4)c3c2cc1OC` [HPK62, 4-(6,7-Dimethoxy-9H-1,3,9-triaza-fluoren-4-yl)-piperazine-1-carbothioic acid [4-(pyrimidin-2-ylsulfamoyl)-phenyl]-amide]: the IC50 against Aurora-A is 0.9 µM; against CDK1 (CDK1, 0.1 μM ATP, 30 μM Kemptide), 22.3 µM; against cAMP-PK (cAMP-PK, 0.1 μM ATP, 30 μM Kemptide), more than 100 µM; against MKK6 (MKK6, 0.1 μM ATP, 30 μM Kemptide) it was 6.2 µM. Besides, the “kinase inhibitory activity (in words)” value is on record as “inhibitory activity” at CDK1 (Cdk1, FIG. 27); “inhibitory activity” at cAMP-PK (cAMP PK, FIG. 27); “inhibitory activity” on MKK6 (MKK6, FIG. 27).
